Experimental findings from patent publication US10793557B2, “Sting agonist compounds” (Merck Sharp & Dohme Corp., priority 2018, dated 2020) are described below.

One test has as its target T1, full-length HAQ STING (Homo sapiens, UniProt Q86WV6, G230A/H232R/R293Q/R71H).
T1 construct: AviTag (after GG linker) (C); HRV3C cleavage site (after GS linker) (C); HIS8 (C); made in house; host or cells: Trichoplusia ni (Hi-Five) insect cells infected with baculovirus (virus generated and amplified in Sf21 cells); used as a washed membrane preparation
Put plainly: 3H-cGAMP filtration binding assay (HAQ STING). The note with it: for EC50: competition with tritiated cGAMP, HAQ STING membrane. In outline: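 Hi-Five (T. ni) membranes overexpressing the STING variant (2.2 ug/ml working) preincubated with compound 60 min at RT in PBS, then [3H]cGAMP (8 nM working stock) added for 60 min at RT. Bound radioactivity captured on GF/B filters and counted by scintillation; EC50 from 4-parameter fit of control-normalized activity.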

The next test has as its target T2, full-length WT STING (Homo sapiens, UniProt Q86WV6, H232R).
T2 construct: AviTag (after gg linker) (C); HRV3C cleavage site (after gs linker) (C); HIS8 (C); made in house; host or cells: Trichoplusia ni (Hi-Five) insect cells infected with baculovirus (virus generated and amplified in Sf21 cells); used as a washed membrane preparation
Briefly: 3H-cGAMP filtration binding assay (WT STING). The note with it: for EC50: competition with tritiated cGAMP, WT STING membrane; for inhibition at 20 µM: at 20,000 nM compound. In outline: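 EC50 values come from 4-parameter fits of remaining filter-bound tritium versus log concentration (10-point, 1:3 dilution). Insect-cell membranes carrying full-length WT STING were incubated 60 min at RT with compound and tritiated cGAMP (16 nM working stock) before filtration.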

The test system of test [1] is secretion of interferon-beta from THP1 cells. Put plainly: IFN-β secretion in THP1 cell culture (5 h). The format is cell-based. The note with it: Homo sapiens, THP-1, 5 h, compound at 30 μM, 30 uM cGAMP = 100%, read-out: % Effect at 30 μM relative to 2′3′-cGAMP. An outline of the steps:
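IFN-β in supernatant measured by AlphaLISA after a 5 h, 37 °C incubation of THP1 cells with compound (10 concentrations, 30000 down to 1.5 nM, 0.3% DMSO) in low-serum RPMI. Values scaled between DMSO and 30 uM cGAMP controls; 4-parameter curve fit yields EC50.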

T2 sequence (Q86WV6 with tags, fused parts or gaps H232R): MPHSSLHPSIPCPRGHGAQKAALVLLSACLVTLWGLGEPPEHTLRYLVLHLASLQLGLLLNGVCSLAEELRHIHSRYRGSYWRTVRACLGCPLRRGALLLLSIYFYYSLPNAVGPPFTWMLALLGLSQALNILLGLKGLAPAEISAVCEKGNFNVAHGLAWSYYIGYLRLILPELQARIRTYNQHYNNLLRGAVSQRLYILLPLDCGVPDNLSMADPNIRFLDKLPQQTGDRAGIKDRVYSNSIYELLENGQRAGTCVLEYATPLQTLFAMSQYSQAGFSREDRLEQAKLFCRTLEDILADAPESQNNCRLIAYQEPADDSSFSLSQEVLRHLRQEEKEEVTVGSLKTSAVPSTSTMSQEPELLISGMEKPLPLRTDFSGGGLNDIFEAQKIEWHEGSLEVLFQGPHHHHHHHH
T1 sequence (Q86WV6 with tags, fused parts or gaps R71H/G230A/H232R/R293Q): as the sequence (Q86WV6 with tags, fused parts or gaps H232R) above, with R71H, G230A, R293Q counted along it

As for `COc1cc2sc(C(=O)CCC(=O)O)cc2cc1OCCOc1c(OC)cc2sc(C(=O)C[C@H](C)C(=O)O)cc2c1F` [Example 34, (S)-4-(5-(2-((2-(3-carboxypropanoyl)-6-methoxybenzo [b]thiophen-5-yl)oxy)ethoxy)-4-fluoro-6-methoxybenzo[b]thiophen-2-yl)-2-methyl-4-oxobutanoic acid], the EC50 on full-length HAQ STING is 3 nM; on full-length WT STING, 4 nM. For the same compound, in test [1], the activation at 30 µM turned out to be 72%.
On to `COc1cc2sc(C(=O)C[C@H](C)C(=O)O)cc2cc1CCCOc1c(OC)cc2sc(C(=O)CCC(=O)O)cc2c1F` [Example 35, (S)-4-(5-(3-((2-(3-carboxypropanoyl)-4-fluoro-6-methoxybenzo[b]thiophen-5-yl)oxy)propyl)-6-methoxybenzo[b]thiophen-2-yl)-2-methyl-4-oxobutanoic acid], for which the concentration giving a half-maximal response (EC50) worked out at 2 nM at full-length HAQ STING and 4 nM on full-length WT STING. Further, in test [1], the activation at 30 µM worked out at 80%.
The matching figures for `COc1cc2sc(C(=O)CCC(=O)O)cc2cc1OCCOc1c(OC)cc2sc(C(=O)CCC(=O)O)cc2c1F` [Example 36, 4-(5-(2-((2-(3-carboxypropanoyl)-4-fluoro-6-methoxybenzo[b]thiophen-5-yl)oxy)ethoxy)-6-methoxybenzo[b]thiophen-2-yl)-4-oxobutanoic acid]: 4 nM, 10 nM and 102%.
Take `COc1cc2sc(C(=O)C[C@H](C)C(=O)O)cc2cc1CCCOc1c(OC)cc2sc(C(=O)C[C@H](C)C(=O)O)cc2c1F` [Example 37, (S)-4-(5-(3-((2-((S)-3-carboxybutanoyl)-4-fluoro-6-methoxybenzo[b]thiophen-5-yl)oxy)propyl)-6-methoxybenzo[b]thiophen-2-yl)-2-methyl-4-oxobutanoic acid]: the figures for the EC50 on full-length HAQ STING and at full-length WT STING were 1 nM and 2 nM, respectively. Also, in test [1], the activation at 30 µM came out at 76%.
For `COc1cc2sc(C(=O)CCC(=O)O)cc2cc1OCCOc1cc2cc(C(=O)CCC(=O)O)sc2cc1OC` [Example 38, 4,4′-((ethane-1,2-diylbis (oxy))bis(6-methoxybenzo [b]thiophene-5,2-diyl))bis(4-oxobutanoic acid)] the same measures were 695 nM, 1040 nM and 17%.
The matching figures for `COc1cc2sc(C(=O)CCC(=O)O)cc2cc1OCCCOc1c(OC)cc2sc(C(=O)C[C@H](C)C(=O)O)cc2c1F` [Example 39, (S)-4-(5-(3-((2-(3-carboxypropanoyl)-6-methoxybenzo [b]thiophen-5-yl)oxy)propoxy)-4-fluoro-6-methoxybenzo[b]thiophen-2-yl)-2-methyl-4-oxobutanoic acid]: 1 nM, 2 nM and 75%.
Turning to `COc1cc2cc(C(=O)C[C@H](C)C(=O)O)sc2cc1OCCCc1nc2c(o1)c(OC)cc1sc(C(=O)C[C@H](C)C(=O)O)cc12` [Example 40, (S)-4-(6-(3-(7-((S)-3-carboxybutanoyl)-4-methoxythieno[2′,3′:5,6]benzo[1,2-d]oxazol-2-yl)propoxy)-5-methoxybenzo [b]thiophen-2-yl)-2-methyl-4-oxobutanoic acid], the concentration giving a half-maximal response (EC50) came out at 86 nM at full-length HAQ STING and 1360 nM on full-length WT STING. For the same compound, the activation at 30 µM in test [1] came out at 27%.
On to `COc1cc2sc(C(=O)C[C@H](C)C(=O)O)cc2cc1CCCOc1cc2cc(C(=O)C[C@H](C)C(=O)O)sc2cc1OC` [Example 41, (2S)-4-{5-[3-({2-[(3S)-3-carboxybutanoyl]-6-methoxy-1-benzothiophen-5-yl}oxy)propyl]-6-methoxy-1-benzothiophen-2-yl}-2-methyl-4-oxobutanoic acid], for which the EC50 at full-length HAQ STING was 16 nM; on full-length WT STING it was 50 nM. Also, the activation at 30 µM in test [1] stood at 117%.
The matching figures for `COc1cc2sc(C(=O)C[C@H](C)C(=O)O)cc2cc1CCOc1cc2cc(C(=O)C[C@H](C)C(=O)O)sc2cc1OC` [Example 42, (S)-4-(5-(2-(2-((S)-3-carboxybutanoyl)-6-methoxybenzo[b]thiophen-5-yl)ethoxy)-6-methoxybenzo[b]thiophen-2-yl)-2-methyl-4-oxobutanoic acid]: 6 nM, 12 nM and 67%.
With `COc1cc2sc(C(=O)C[C@H](C)C(=O)O)cc2cc1OCCCOc1ccc2cc(C(=O)CCC(=O)O)sc2c1` [Example 43, (S)-4-(5-(3-((2-(3-carboxypropanoyl)benzo[b]thiophen-6-yl)oxy)propoxy)-6-methoxybenzo [b]thiophen-2-yl)-2-methyl-4-oxobutanoic acid], the 50% effective concentration (EC50) at full-length HAQ STING was determined as 49 nM; at full-length WT STING it was 151 nM. Moreover, the activation at 30 µM in test [1] turned out to be 69%.
Consider `COc1cc2sc(C(=O)CCC(=O)O)cc2cc1CCCOc1cc2cc(C(=O)CCC(=O)O)sc2cc1OC` [Example 44, 4-(5-(3-((2-(3-carboxypropanoyl)-6-methoxybenzo[b]thiophen-5-yl)oxy)propyl)-6-methoxybenzo[b]thiophen-2-yl)-4-oxobutanoic acid], for which the half-maximal effective concentration (EC50) was 14 nM at full-length HAQ STING and 64 nM on full-length WT STING. Moreover, the activation at 30 µM in test [1] is 108%.
Take `COc1cc2cc(C(=O)C[C@H](C)C(=O)O)sc2cc1OCCCOc1ccc2cc(C(=O)CCC(=O)O)sc2c1` [Example 45, (S)-4-(6-(3-((2-(3-carboxypropanoyl)benzo[b]thiophen-6-yl)oxy)propoxy)-5-methoxybenzo[b]thiophen-2-yl)-2-methyl-4-oxobutanoic acid]: the EC50 worked out at 4330 nM on full-length HAQ STING and 14800 nM on full-length WT STING. Further, the activation at 30 µM in test [1] was 8%.
Consider `COc1cc2cc(C(=O)C[C@H](C)C(=O)O)sc2cc1OCCCOc1ccc2sc(C(=O)CCC(=O)O)cc2c1` [Example 46, (S)-4-(6-(3-((2-(3-carboxypropanoyl)benzo[b]thiophen-5-yl)oxy)propoxy)-5-methoxybenzo[b]thiophen-2-yl)-2-methyl-4-oxobutanoic acid], for which the EC50 worked out at 133 nM at full-length HAQ STING and 394 nM at full-length WT STING. The activation at 30 µM in test [1] is 60%.
For `COc1cc2cc(C(=O)C[C@H](C)C(=O)O)sc2cc1OCCCOc1cc2sc(C(=O)C[C@H](C)C(=O)O)cc2cc1OC` [Example 47, (2S,2′S)-4,4′-((propane-1,3-diylbis(oxy))bis(5-methoxybenzo[b]thiophene-6,2-diyl))bis(2-methyl-4-oxobutanoic acid)], the EC50 on full-length HAQ STING came to 14 nM; at full-length WT STING, 81 nM. In addition, the activation at 30 µM in test [1] came out at 62%.
In turn, `COC(=O)[C@@H](C)CC(=O)c1cc2cc(OCCCOc3cc4sc(C(=O)C[C@H](C)C(=O)OC)cc4cc3OC)c(OC)cc2s1` [Example 48, methyl (S)-4-(6-methoxy-5-(3-((5-methoxy-2-((S)-4-methoxy-3-methyl-4-oxobutanoyl)benzo[b]thiophen-6-yl)oxy)propoxy)benzo[b]thiophen-2-yl)-2-methyl-4-oxobutanoate] returned a concentration giving a half-maximal response (EC50) on full-length HAQ STING of 12800 nM. In addition, 20 µM produced 43% inhibition on full-length WT STING. In test [1], the activation at 30 µM came out at 22%.
In the case of `COC(=O)[C@@H](C)CC(=O)c1cc2cc(OCCCOc3cc4cc(C(=O)C[C@H](C)C(=O)OC)sc4cc3OC)c(OC)cc2s1` [Example 49, dimethyl 4,4′-((propane-1,3-diylbis(oxy))bis(6-methoxybenzo[b]thiophene-5,2-diyl))(2S,2′S)-bis(2-methyl-4-oxobutanoate)], the results for the inhibition at 20 µM on full-length HAQ STING (at 20,000 nM compound) and on full-length WT STING were 44% and 34%, respectively. Also, the activation at 30 µM in test [1] came to 17%.

As a reminder, the EC50 is the concentration needed to bring the measured effect to its halfway point. A lower EC50 goes with greater potency. Usually inhibition stands for the share of the control response that was lost under treatment. Lower therefore signals a response near the control.
